In article PMC4234265, “The C-terminus of nisin is important for the ABC transporter NisFEG to confer immunity in Lactococcus lactis” (MicrobiologyOpen, 2014):

Assays:
[1] = tested on: NZ9000NisFEG strain; experiment: Growth inhibition (IC50) of nisin and variants, NisFEG-expressing strain; assay type: cell-based, Lactococcus lactis; conditions: for Fold of immunity mediated by NisFEG: IC50 against NZ9000NisFEG compared with IC50 against NZ9000Erm; for Activity of NisFEG reduced to: fold of immunity for the variant relative to wild-type nisin
Procedure: The NZ9000NisFEG and NZ9000NisFH181AEG strains were grown in GM17 media supplemented with 5 μg/mL chloramphenicol to an OD600 of 0.8. By the addition of nisin (final concentration of 1 ng/mL), the expression was induced and the culture was further grown overnight. After 15 h, the cells were diluted to an OD600 of 0.1 in fresh media supplemented with 5 μg/mL chloramphenicol and with the inducer nisin (10 ng/mL).
The NZ9000, NZ9000NisFEG, and NZ9000NisFH181AEG strains were grown overnight in GM17 media supplemented with 5 μg/mL chloramphenicol in the presence of 1 ng/mL nisin. The diluted cells (final OD600 was 0.1) were incubated with a serial dilution of nisin or its variants with 50 mmol/L lactic acid in a 96 well microtiter plate. The total volume in each well was 200 μL, consisting of 50 μL nisin and 150 μL GM17 containing the corresponding L. lactis strain.
The plate was incubated at 30°C. After 5 h, the optical density was measured at 620 nm via 96-plate reader BMG. The normalized optical density was plotted against the logarithm of the nisin concentration in order to calculate the IC50 of nisin and the data was evaluated using the following equation (1): [drawing 1] 1
The IC50 value is the concentration of nisin were the growth of the L. lactis strain is inhibited by 50% as described in more detail earlier (Abts et al. [2011]).

[2] = tested on: NZ9000Erm strain; experiment: Growth inhibition (IC50) of nisin and variants, sensitive strain; assay type: cell-based, Lactococcus lactis; conditions: from IC50 values against NZ9000Erm

Structure (SMILES) | Fold of immunity mediated by NisFEG [1] [fold] | Activity of NisFEG reduced to [1] [%] | Fold reduction of antimicrobial activity compared to wild-type nisin [2] [fold] | Reduction of NisFEG activity / fold of immunity ([1]; decrease relative to wild-type nisin) [%]
C=C1NC(=O)[C@H]([C@@H](C)CC)NC(=O)[C@H](NC(=O)/C(=C/C)NC(=O)[C@@H](N)[C@@H](C)CC)CSC[C@@H](C(=O)N[C@H]2C(=O)N3CCC[C@H]3C(=O)NCC(=O)N[C@H](C(=O)N[C@@H](CCCCN)C(=O)N[C@H]3C(=O)NCC(=O)N[C@@H](C)C(=O)N[C@@H](CC(C)C)C(=O)N[C@@H](CCSC)C(=O)NCC(=O)N[C@H](C(=O)N[C@@H](CC(N)=O)C(=O)N[C@@H](CCSC)C(=O)N[C@@H](CCCCN)C(=O)O)CS[C@H]3C)CS[C@H]2C)NC(=O)[C@H](CC(C)C)NC1=O [Nisin1-22] | 2.5 | 33 | 25 | –
C=C1NC(=O)[C@H]([C@@H](C)CC)NC(=O)[C@H](NC(=O)/C(=C/C)NC(=O)[C@@H](N)[C@@H](C)CC)CSC[C@@H](C(=O)N[C@H]2C(=O)N3CCC[C@H]3C(=O)NCC(=O)N[C@H](C(=O)N[C@@H](CCCCN)C(=O)N[C@H]3C(=O)NCC(=O)N[C@@H](C)C(=O)N[C@@H](CC(C)C)C(=O)N[C@@H](CCSC)C(=O)NCC(=O)N[C@H](C(=O)N[C@@H](CC(N)=O)C(=O)N[C@@H](CCSC)C(=O)N[C@@H](CCCCN)C(=O)N[C@H]4C(=O)N[C@@H](C)C(=O)N[C@H]5C(=O)N[C@@H](CS[C@H]4C)C(=O)N[C@@H](Cc4c[nH]cn4)C(=O)N[C@H](C(=O)O)CS[C@H]5C)CS[C@H]3C)CS[C@H]2C)NC(=O)[C@H](CC(C)C)NC1=O [Nisin1-28] | 3.8 | 60 | 20 | 50
